AC50 data for 13 compounds are collected here from ChEMBL document CHEMBL5291721, “A preclinical secondary pharmacology resource illuminates target-adverse drug reaction associations of marketed drugs” (Nat Commun, 2023).

The target of assay [1] is T1, Alpha-2A adrenergic receptor (Homo sapiens, UniProt P08913).
T1 sequence (P08913 whole entry): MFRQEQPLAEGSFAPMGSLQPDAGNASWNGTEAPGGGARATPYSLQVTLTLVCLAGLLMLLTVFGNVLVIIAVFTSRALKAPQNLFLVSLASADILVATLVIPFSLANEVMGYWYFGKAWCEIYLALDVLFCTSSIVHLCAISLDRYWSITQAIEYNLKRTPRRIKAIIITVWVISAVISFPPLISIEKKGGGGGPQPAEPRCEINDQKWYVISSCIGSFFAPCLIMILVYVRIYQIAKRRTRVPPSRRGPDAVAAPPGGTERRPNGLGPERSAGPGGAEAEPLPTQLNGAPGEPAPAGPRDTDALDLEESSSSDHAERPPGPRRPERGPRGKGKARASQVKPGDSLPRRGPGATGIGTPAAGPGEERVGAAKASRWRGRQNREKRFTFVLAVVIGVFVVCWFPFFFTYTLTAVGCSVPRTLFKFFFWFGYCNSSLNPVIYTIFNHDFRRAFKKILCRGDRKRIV
The assay is classed as functional, cell-based.

Assay [2] deals with T2, Progesterone receptor (Homo sapiens, UniProt P06401).
T2 sequence (P06401 whole entry): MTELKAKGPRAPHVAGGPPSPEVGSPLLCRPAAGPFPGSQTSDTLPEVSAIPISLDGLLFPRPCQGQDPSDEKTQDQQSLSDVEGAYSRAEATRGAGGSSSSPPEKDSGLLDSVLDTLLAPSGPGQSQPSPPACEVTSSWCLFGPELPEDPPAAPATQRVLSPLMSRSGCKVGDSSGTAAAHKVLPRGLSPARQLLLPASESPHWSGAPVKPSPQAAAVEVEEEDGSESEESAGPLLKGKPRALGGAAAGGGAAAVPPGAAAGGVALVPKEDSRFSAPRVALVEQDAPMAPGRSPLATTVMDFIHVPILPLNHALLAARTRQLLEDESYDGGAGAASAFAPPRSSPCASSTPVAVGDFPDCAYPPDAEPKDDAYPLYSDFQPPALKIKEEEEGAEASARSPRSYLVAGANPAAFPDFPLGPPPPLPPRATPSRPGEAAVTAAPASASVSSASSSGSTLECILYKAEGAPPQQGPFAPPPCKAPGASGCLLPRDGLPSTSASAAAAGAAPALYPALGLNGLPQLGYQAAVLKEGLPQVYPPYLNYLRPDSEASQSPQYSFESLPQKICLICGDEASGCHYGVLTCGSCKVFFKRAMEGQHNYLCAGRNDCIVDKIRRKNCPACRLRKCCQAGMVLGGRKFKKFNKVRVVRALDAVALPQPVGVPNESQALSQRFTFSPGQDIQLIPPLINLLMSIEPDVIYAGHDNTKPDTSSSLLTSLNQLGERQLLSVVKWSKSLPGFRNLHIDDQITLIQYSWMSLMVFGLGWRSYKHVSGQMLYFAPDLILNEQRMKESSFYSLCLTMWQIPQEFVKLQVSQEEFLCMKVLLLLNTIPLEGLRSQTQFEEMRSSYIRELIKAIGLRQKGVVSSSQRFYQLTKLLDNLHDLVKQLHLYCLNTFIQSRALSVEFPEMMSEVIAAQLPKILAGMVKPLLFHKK
Type of assay: functional.

The target in assay [3] is Gamma-aminobutyric acid receptor subunit alpha-1 (Rattus norvegicus, UniProt P62813). Type of assay: functional.
Assay [4] deals with T2, Progesterone receptor. The assay is classed as functional. This is another data set of the same source.
Assay [5] addresses T3, Type-1 angiotensin II receptor (Homo sapiens, UniProt P30556).
T3 sequence (P30556 whole entry): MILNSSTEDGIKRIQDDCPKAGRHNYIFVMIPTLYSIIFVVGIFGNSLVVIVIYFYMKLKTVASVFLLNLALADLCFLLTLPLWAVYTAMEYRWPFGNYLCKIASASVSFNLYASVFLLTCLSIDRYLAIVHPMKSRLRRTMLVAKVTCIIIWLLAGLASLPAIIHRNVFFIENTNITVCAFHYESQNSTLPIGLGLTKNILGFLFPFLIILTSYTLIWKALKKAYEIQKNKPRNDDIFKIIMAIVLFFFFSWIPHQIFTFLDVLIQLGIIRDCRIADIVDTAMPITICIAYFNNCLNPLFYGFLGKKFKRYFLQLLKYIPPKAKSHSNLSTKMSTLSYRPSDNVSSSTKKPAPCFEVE

For assay [6], the target named is Adenosine receptor A2a (Homo sapiens, UniProt P29274).
For assay [7], the target named is T4, Gastrin/cholecystokinin type B receptor (Homo sapiens, UniProt P32239).
T4 sequence (P32239 whole entry): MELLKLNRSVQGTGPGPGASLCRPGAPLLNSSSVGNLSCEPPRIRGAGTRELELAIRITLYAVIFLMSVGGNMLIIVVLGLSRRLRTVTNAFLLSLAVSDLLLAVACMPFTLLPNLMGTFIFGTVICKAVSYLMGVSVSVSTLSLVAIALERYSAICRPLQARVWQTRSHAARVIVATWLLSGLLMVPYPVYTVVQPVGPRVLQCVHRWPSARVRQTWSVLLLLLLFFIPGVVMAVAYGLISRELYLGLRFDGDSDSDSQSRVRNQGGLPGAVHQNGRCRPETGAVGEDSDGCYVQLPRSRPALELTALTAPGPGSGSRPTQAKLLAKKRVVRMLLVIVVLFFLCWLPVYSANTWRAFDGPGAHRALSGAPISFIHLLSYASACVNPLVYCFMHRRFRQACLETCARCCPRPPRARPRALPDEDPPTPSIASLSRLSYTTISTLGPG

Assay [8] addresses Vasopressin V1a receptor (Homo sapiens, UniProt P37288).
Assay [9] concerns the target Motilin receptor (Homo sapiens, UniProt O43193).
Assay [10] concerns the target Histamine H2 receptor (Homo sapiens, UniProt P25021). Type of assay: functional, cell-based.

Where a SMILES comes first, the peptide text is derived from it. [ ]: non-standard residue; d: D form. pGlu = O=C1CC[C@@H](C(=O)O)N1; Thz = O=C(O)[C@@H]1CSCN1
Note: assay procedure not described here.

Sequence of Motilin receptor (O43193 whole entry): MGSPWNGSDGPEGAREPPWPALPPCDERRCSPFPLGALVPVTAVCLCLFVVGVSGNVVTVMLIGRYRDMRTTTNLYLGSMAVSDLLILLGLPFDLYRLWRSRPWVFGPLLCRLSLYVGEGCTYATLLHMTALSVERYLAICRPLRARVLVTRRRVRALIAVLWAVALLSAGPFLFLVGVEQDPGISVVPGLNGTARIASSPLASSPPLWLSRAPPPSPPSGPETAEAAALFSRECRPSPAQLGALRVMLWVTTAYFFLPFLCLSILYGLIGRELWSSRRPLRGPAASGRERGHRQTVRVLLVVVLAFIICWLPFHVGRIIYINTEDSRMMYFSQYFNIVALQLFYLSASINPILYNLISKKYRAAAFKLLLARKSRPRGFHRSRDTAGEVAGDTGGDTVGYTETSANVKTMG
Sequence of Gamma-aminobutyric acid receptor subunit alpha-1 (P62813 whole entry): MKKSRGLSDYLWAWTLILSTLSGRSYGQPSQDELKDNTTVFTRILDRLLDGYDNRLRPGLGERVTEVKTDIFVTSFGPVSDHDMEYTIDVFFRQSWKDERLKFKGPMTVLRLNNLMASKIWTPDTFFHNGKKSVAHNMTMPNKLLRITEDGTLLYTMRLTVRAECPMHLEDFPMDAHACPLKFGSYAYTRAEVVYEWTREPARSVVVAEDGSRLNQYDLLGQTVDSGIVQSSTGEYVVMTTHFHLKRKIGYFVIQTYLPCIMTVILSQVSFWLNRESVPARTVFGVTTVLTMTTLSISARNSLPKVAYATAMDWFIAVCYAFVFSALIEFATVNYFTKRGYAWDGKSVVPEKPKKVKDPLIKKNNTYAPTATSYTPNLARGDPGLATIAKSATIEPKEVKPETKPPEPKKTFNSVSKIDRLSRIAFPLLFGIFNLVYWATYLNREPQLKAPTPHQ
Sequence of Histamine H2 receptor (P25021 whole entry): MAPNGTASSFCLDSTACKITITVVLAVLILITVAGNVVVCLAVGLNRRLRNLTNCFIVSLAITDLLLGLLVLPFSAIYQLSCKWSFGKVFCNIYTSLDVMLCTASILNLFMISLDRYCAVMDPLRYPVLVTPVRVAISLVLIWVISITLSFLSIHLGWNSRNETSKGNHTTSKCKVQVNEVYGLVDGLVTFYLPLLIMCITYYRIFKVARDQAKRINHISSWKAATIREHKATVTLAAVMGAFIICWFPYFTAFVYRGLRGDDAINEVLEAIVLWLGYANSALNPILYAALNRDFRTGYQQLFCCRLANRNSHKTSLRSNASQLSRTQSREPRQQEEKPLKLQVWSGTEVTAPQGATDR
Sequence of Adenosine receptor A2a (P29274 whole entry): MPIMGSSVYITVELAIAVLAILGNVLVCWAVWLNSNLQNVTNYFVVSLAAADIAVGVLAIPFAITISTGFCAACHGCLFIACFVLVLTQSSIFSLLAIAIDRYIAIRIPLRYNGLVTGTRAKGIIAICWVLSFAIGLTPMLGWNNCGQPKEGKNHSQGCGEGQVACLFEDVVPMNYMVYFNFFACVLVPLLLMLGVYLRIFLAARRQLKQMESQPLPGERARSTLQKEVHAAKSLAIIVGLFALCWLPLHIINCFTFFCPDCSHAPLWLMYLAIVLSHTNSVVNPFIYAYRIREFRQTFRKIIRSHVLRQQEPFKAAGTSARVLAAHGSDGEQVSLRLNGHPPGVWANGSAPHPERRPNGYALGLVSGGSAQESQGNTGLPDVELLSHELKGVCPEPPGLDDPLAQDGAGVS
Sequence of Vasopressin V1a receptor (P37288 whole entry): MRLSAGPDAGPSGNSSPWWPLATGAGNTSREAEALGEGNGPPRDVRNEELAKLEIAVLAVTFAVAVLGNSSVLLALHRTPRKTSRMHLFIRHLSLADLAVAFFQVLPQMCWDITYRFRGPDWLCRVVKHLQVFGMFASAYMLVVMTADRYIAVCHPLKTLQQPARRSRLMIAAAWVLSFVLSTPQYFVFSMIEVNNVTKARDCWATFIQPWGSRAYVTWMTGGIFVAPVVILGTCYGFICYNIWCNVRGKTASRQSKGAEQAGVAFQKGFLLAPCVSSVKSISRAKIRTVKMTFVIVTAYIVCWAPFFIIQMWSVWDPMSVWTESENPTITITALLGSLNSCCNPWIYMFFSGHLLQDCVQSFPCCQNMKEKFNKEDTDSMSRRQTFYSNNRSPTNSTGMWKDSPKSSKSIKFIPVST

With `O=C(NCCO[N+](=O)[O-])c1cccnc1` [NICORANDIL], the AC50 in assay [1], in [2], in assay [3], in assay [4], in assay [5] and in [6] was above 30 µM in each case. Further, the AC50 in [7], in assay [8], in assay [9] and in assay [10] was above 30 µM each time.
For the compound `O=c1[nH]c2ccccc2n1CCCN1CCN(C(c2ccccc2)c2ccccc2)CC1` [OXATOMIDE], the AC50 in assay [1] was above 30 µM; in [2], above 30 µM; in assay [3] it was above 30 µM; in [4], above 30 µM; in assay [5], 17 µM; in [6], above 30 µM. Moreover, the concentration at half-maximal activity (AC50) is above 30 µM in assay [7], 22 µM in [8], 12 µM in [9] and above 30 µM in [10].
Take `COc1cc2[nH]c(C)c(CCN3CCN(c4ccccc4)CC3)c2cc1OC` [OXYPERTINE]: the AC50 in assay [1], in [2], in [3], in assay [4], in [5] and in assay [6] was above 30 µM each time. The AC50 in [7], in [8], in assay [9] and in assay [10] was above 30 µM throughout.
As for `c1ccc(C2(N3CCCCC3)CCCCC2)cc1` [PHENCYCLIDINE], the AC50 in assay [1], in assay [2], in [3], in assay [4], in assay [5] and in assay [6] was above 30 µM throughout. Besides, the AC50 in assay [7], in [8], in [9] and in [10] was above 30 µM in each case.
Turning to `OC[C@H]1O[C@@H](Oc2cc(O)cc(/C=C/c3ccc(O)cc3)c2)[C@H](O)[C@@H](O)[C@@H]1O` [PICEID], the AC50 in assay [1], in [2], in [3], in [4], in assay [5] and in [6] was above 30 µM each time. For the same compound, the AC50 in assay [7], in assay [8], in assay [9] and in assay [10] was above 30 µM each time.
For `O=C1CC[C@@H](C(=O)N2CSC[C@H]2C(=O)O)N1` [PIDOTIMOD] ([pGlu]-[Thz]-OH), the AC50 in assay [1], in [2], in [3], in assay [4], in [5] and in [6] was above 30 µM throughout. Further, the AC50 in [7], in [8], in [9] and in assay [10] was above 30 µM throughout.
Take `COc1cc(C(=O)OCc2cccc(COC(=O)c3cc(OC)c(OC)c(OC)c3)n2)cc(OC)c1OC` [PIROZADIL]: the AC50 in assay [1], in [2], in assay [3], in assay [4], in assay [5] and in assay [6] was above 30 µM each time. Further, the AC50 in [7], in assay [8], in assay [9] and in assay [10] was above 30 µM each time.
For `CCC(NC(C)C)C(O)c1ccc(O)c2[nH]c(=O)ccc12` (stereo not given) [PROCATEROL], the AC50 in assay [1], in [2], in assay [3], in assay [4], in [5] and in assay [6] was above 30 µM each time. Further, the AC50 in [7], in assay [8], in [9] and in assay [10] was above 30 µM each time.
With `C=CC[N+]1([C@H]2C[C@H]3[C@@H]4CC[C@H]5C[C@H](O)[C@@H](N6CCOCC6)C[C@]5(C)[C@H]4CC[C@]3(C)[C@H]2OC(C)=O)CCCC1` [ROCURONIUM], the AC50 is above 30 µM in [1]; above 30 µM in [2]; above 30 µM in [3]; above 30 µM in assay [4]; 1.2 µM in assay [5]; above 30 µM in assay [6]. For the same compound, the AC50 in [7], in assay [8], in assay [9] and in [10] was above 30 µM throughout.
For `CCCN1CCCC[C@H]1C(=O)Nc1c(C)cccc1C` [ROPIVACAINE], the AC50 in [1], in assay [2], in assay [3], in assay [4], in assay [5] and in [6] was above 30 µM in each case. Further, the AC50 in assay [7], in assay [8], in assay [9] and in assay [10] was above 30 µM each time.
As for `CCN1CCCC1CNC(=O)c1cc(S(=O)(=O)CC)ccc1OC` (stereo not given) [SULTOPRIDE], the AC50 in [1], in [2], in assay [3], in [4], in assay [5] and in [6] was above 30 µM in each case. In addition, the AC50 in assay [7], in assay [8], in [9] and in [10] was above 30 µM throughout.
Turning to `C=CCN1CCc2nc(N)sc2CC1` [TALIPEXOLE], the AC50 in assay [1] is 0.083 µM; in assay [2] it was above 30 µM; in assay [3], above 30 µM; in assay [4], above 30 µM; in assay [5], above 30 µM; in [6], above 30 µM. Also, the AC50 in [7], in assay [8], in [9] and in assay [10] was above 30 µM each time.
For the compound `Cn1c(=O)c2c(ncn2CCOC(=O)C(C)(C)Oc2ccc(Cl)cc2)n(C)c1=O` [THEOFIBRATE], the AC50 in assay [1], in [2], in assay [3], in assay [4], in assay [5] and in assay [6] was above 30 µM in each case. In addition, the AC50 in [7], in [8], in assay [9] and in assay [10] was above 30 µM each time.

By AC50 is commonly meant the concentration at which the activity in the assay is half-maximal. Low readings indicate greater potency, high ones weaker potency.
